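Tested at 5 concentrations; 48 h exposure; 96-well plates; endpoints linearly interpolated, else capped at highest concentration. GI50: concentration for 50% inhibition of growth. TGI: concentration producing complete growth inhibition.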

Some test systems named below: SK-MEL-28 melanoma; NCI-H226 lung; ACHN renal; HOP-62 NSCLC; MDA-MB-435; HT29 colon; HCT-15 colon; MOLT-4 leukemia; M14 melanoma; OVCAR-4 ovarian.
Common to all, as to assay: growth of human tumour cells (NCI), 48 h

As to `O=C(/C=C/c1ccccn1)c1ccccc1O`, the GI50 with SK-MEL-28 melanoma was 2.09 µM; in the experiment with NCI-H226 lung, 2.18 µM; in the experiment with ACHN renal it was 1.92 µM; with HOP-62 NSCLC it was 2.4 µM; with MDA-MB-435 it was 1.69 µM; with HT29 colon, 2.23 µM. Besides, the GI50 in the experiment with HCT-15 colon is 2.35 µM; in the experiment on MOLT-4 leukemia, 2.43 µM; with M14 melanoma, 2 µM; with OVCAR-4 ovarian, 2980 nM. The TGI was 4.22 µM in the experiment on SK-MEL-28 melanoma; 6.23 µM in the experiment with NCI-H226 lung; 3.51 µM in the experiment on ACHN renal; 6.15 µM with HOP-62 NSCLC; 3.41 µM in the experiment with MDA-MB-435; 4.84 µM in the experiment on HT29 colon. Besides, the TGI in the experiment with HCT-15 colon amounted to 6.68 µM; in the experiment with MOLT-4 leukemia, 7.04 µM; in the experiment with M14 melanoma, 4.28 µM; with OVCAR-4 ovarian, 8.84 µM.
On to `O=C1Nc2ccccc2C1(c1ccc(O)c(F)c1)c1ccc(O)c(F)c1`, for which the GI50 is 14.4 µM in the experiment on SK-MEL-28 melanoma; 11 µM in the experiment on NCI-H226 lung; 3.07 µM in the experiment on ACHN renal; 16.9 µM in the experiment with HOP-62 NSCLC; 3.06 µM in the experiment with MDA-MB-435; 22.7 µM in the experiment on HT29 colon. In addition, the GI50 in the experiment on HCT-15 colon was 8.34 µM; in the experiment with MOLT-4 leukemia, 10.6 µM; with M14 melanoma it was 12 µM; in the experiment on OVCAR-4 ovarian it was 237 nM. Also, the TGI in the experiment on SK-MEL-28 melanoma was 52 µM; in the experiment with NCI-H226 lung, 39.7 µM; with ACHN renal, more than 84 µM; in the experiment with HOP-62 NSCLC, 44.5 µM; in the experiment with MDA-MB-435, 11.2 µM; with HT29 colon it was 48.5 µM. For the same compound, the TGI in the experiment with HCT-15 colon amounted to 34.4 µM; with MOLT-4 leukemia, 67 µM; with M14 melanoma, 65.5 µM; in the experiment with OVCAR-4 ovarian it was 0.659 µM.
In the case of `O=S(=O)(O)c1ccc(Cl)cc1.[Cd]`, the GI50 in the experiment with SK-MEL-28 melanoma is more than 100 µM; with NCI-H226 lung it was more than 100 µM; with ACHN renal, more than 100 µM; in the experiment on HOP-62 NSCLC it was more than 100 µM; in the experiment with MDA-MB-435 it was 20.5 µM; in the experiment on HT29 colon, more than 100 µM. For the same compound, the GI50 in the experiment with HCT-15 colon was more than 100 µM; in the experiment with MOLT-4 leukemia, 79.2 µM; with M14 melanoma it was more than 100 µM; in the experiment on OVCAR-4 ovarian, 51900 nM. Moreover, the TGI with SK-MEL-28 melanoma is more than 100 µM; in the experiment with NCI-H226 lung, more than 100 µM; with ACHN renal, more than 100 µM; in the experiment with HOP-62 NSCLC it was more than 100 µM; with MDA-MB-435, 63 µM; in the experiment with HT29 colon, more than 100 µM. Besides, the TGI in the experiment on HCT-15 colon, with MOLT-4 leukemia, with M14 melanoma and with OVCAR-4 ovarian was more than 100 µM throughout.
With `COc1ccc(-c2cc(-c3ccc(O)cc3)nc3nc(=S)[nH]c(N)c23)cc1`, the GI50 in the experiment with SK-MEL-28 melanoma is 66.8 µM; with NCI-H226 lung it was 15.7 µM; in the experiment with ACHN renal, 19.1 µM; in the experiment on HOP-62 NSCLC it was 20.7 µM; in the experiment with MDA-MB-435, 17.3 µM; in the experiment with HT29 colon it was 30.1 µM. Besides, the GI50 in the experiment on HCT-15 colon is 19.6 µM; in the experiment with MOLT-4 leukemia it was 7.01 µM; with M14 melanoma, 19.7 µM; in the experiment on OVCAR-4 ovarian it was 25300 nM. Also, the TGI in the experiment on SK-MEL-28 melanoma is more than 100 µM; in the experiment on NCI-H226 lung, 36.9 µM; with ACHN renal, 65.5 µM; with HOP-62 NSCLC, 47.5 µM; in the experiment with MDA-MB-435, 41.4 µM; with HT29 colon it was more than 100 µM. Further, the TGI in the experiment on HCT-15 colon is 58 µM; in the experiment on MOLT-4 leukemia, more than 100 µM; with M14 melanoma it was 35.4 µM; with OVCAR-4 ovarian, more than 100 µM.
As for `Fc1ccc(-c2ncn(C3CCNCC3)c2-c2ccnc(Oc3ccccc3)n2)cc1`, the GI50 in the experiment on SK-MEL-28 melanoma was 16.9 µM; in the experiment on NCI-H226 lung, more than 25 µM; in the experiment on ACHN renal, 7.22 µM; with HOP-62 NSCLC, more than 25 µM; in the experiment on MDA-MB-435 it was 17.8 µM; with HT29 colon, 8.3 µM. Further, the GI50 is more than 22.8 µM in the experiment with HCT-15 colon, 23.4 µM in the experiment with MOLT-4 leukemia, 9.86 µM in the experiment on M14 melanoma and more than 25000 nM in the experiment on OVCAR-4 ovarian. Moreover, the TGI in the experiment with SK-MEL-28 melanoma, in the experiment on NCI-H226 lung, in the experiment on ACHN renal, with HOP-62 NSCLC, in the experiment on MDA-MB-435 and with HT29 colon was more than 25 µM each time. The TGI in the experiment on HCT-15 colon, with MOLT-4 leukemia, with M14 melanoma and with OVCAR-4 ovarian was more than 25 µM in each case.
Turning to `Cn1cc(C2=C(c3c4n(c5ccccc35)CC(CN)C4)C(=O)NC2=O)c2ccccc21` (stereo not given), the GI50 with SK-MEL-28 melanoma is 3.37 µM; in the experiment with NCI-H226 lung, 3.93 µM; in the experiment on ACHN renal it was 3.16 µM; with HOP-62 NSCLC, 4.56 µM; in the experiment on MDA-MB-435, 1.11 µM; in the experiment with HT29 colon, 3.04 µM. Moreover, the GI50 was 4.33 µM in the experiment with HCT-15 colon, 3.4 µM in the experiment on MOLT-4 leukemia, 3.3 µM in the experiment on M14 melanoma and 2330 nM in the experiment on OVCAR-4 ovarian. The TGI in the experiment with SK-MEL-28 melanoma is 7.01 µM; in the experiment with NCI-H226 lung, 18 µM; with ACHN renal, 12.3 µM; in the experiment on HOP-62 NSCLC it was 11 µM; with MDA-MB-435 it was 4.72 µM; in the experiment with HT29 colon it was 11.8 µM. The TGI in the experiment on HCT-15 colon was determined as 15.8 µM; in the experiment on MOLT-4 leukemia, 15 µM; in the experiment on M14 melanoma it was 7.33 µM; in the experiment with OVCAR-4 ovarian, 10.6 µM.
`O=C(CSc1nc2ccc([N+](=O)[O-])cc2[nH]1)Nc1cccc(Cl)c1`: the GI50 with SK-MEL-28 melanoma was 2.68 µM; with NCI-H226 lung, 2.38 µM; in the experiment on ACHN renal, 2.46 µM; in the experiment on HOP-62 NSCLC, 2.79 µM; with MDA-MB-435, 2.7 µM; in the experiment on HT29 colon, 2.75 µM. For the same compound, the GI50 in the experiment on HCT-15 colon is 3.06 µM; in the experiment with MOLT-4 leukemia it was 3.2 µM; with M14 melanoma, 3.06 µM; in the experiment with OVCAR-4 ovarian it was 2130 nM. The TGI is 13.1 µM in the experiment with SK-MEL-28 melanoma; 9.93 µM in the experiment on NCI-H226 lung; 8.57 µM in the experiment on ACHN renal; 13 µM with HOP-62 NSCLC; 12.2 µM with MDA-MB-435; 10.7 µM with HT29 colon. Besides, the TGI with HCT-15 colon worked out at 15 µM; in the experiment with MOLT-4 leukemia, 40.4 µM; with M14 melanoma, 13.6 µM; in the experiment with OVCAR-4 ovarian, 22.3 µM.
As for `COc1ccc2c(CC(=O)O)cc(=O)oc2c1`, the TGI with SK-MEL-28 melanoma, in the experiment on NCI-H226 lung, in the experiment on ACHN renal, in the experiment on HOP-62 NSCLC, in the experiment on MDA-MB-435 and with HT29 colon was more than 100 µM throughout. Also, the TGI in the experiment on HCT-15 colon, in the experiment with MOLT-4 leukemia, with M14 melanoma and in the experiment on OVCAR-4 ovarian was more than 100 µM throughout.

The values are drawn from PubChem BioAssay (NCI).
